Measurements from patent US10399940B2, “Substituted pyrrolidines and methods of use” (AbbVie S.à.r.l., priority 2016, dated 2019).
Where two headings read alike, the source gives them in different places.

Biological target: T1, F508delCFTR (Homo sapiens, UniProt P13569, DEL508-508)
T1 construct: expressed in transfected cells; host or cells: CFBE41o- (human lung derived epithelial cell line), doxycycline-inducible expression
Experiment: Cell Surface Expression-Horse Radish Peroxidase (CSE-HRP) assay
Format: cell-based
Conditions: CFBE41o-F508delCFTR-HRP cells; for Maximum % activity (with co-corrector): with co-corrector (2 μM); for Maximum % activity (with co-corrector) / Maximum % activity (without co-corrector): normalized to on-plate positive control, highest concentration 20 μM
Summary of the method: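 Surface F508delCFTR-HRP was read by luminol luminescence after 18–24 h compound exposure at 33 °C, without or with 2 μM co-corrector. Doses were eight 3-fold steps from 20 μM, in doxycycline-induced (0.5 μg/mL, 72 h) CFBE41o- cells. % activity was scaled to the on-plate 2 μM positive control minus DMSO; EC50 came from a variable-slope sigmoid fit.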

[1] = test compound without co-corrector, 18-24 hours at 33° C., read-out: EC50 (without co-corrector)
[2] = with co-corrector (2 μM of 3-[(2R,4R)-4-({[1-(2,2-difluoro-1,3-benzodioxol-5-yl)cyclopropyl]carbonyl}amino)-7-methoxy-3,4-dihydro-2H-chromen-2-yl]benzoic acid), read-out: EC50 (with co-corrector)

T1 sequence (P13569 with tags, fused parts or gaps DEL508-508): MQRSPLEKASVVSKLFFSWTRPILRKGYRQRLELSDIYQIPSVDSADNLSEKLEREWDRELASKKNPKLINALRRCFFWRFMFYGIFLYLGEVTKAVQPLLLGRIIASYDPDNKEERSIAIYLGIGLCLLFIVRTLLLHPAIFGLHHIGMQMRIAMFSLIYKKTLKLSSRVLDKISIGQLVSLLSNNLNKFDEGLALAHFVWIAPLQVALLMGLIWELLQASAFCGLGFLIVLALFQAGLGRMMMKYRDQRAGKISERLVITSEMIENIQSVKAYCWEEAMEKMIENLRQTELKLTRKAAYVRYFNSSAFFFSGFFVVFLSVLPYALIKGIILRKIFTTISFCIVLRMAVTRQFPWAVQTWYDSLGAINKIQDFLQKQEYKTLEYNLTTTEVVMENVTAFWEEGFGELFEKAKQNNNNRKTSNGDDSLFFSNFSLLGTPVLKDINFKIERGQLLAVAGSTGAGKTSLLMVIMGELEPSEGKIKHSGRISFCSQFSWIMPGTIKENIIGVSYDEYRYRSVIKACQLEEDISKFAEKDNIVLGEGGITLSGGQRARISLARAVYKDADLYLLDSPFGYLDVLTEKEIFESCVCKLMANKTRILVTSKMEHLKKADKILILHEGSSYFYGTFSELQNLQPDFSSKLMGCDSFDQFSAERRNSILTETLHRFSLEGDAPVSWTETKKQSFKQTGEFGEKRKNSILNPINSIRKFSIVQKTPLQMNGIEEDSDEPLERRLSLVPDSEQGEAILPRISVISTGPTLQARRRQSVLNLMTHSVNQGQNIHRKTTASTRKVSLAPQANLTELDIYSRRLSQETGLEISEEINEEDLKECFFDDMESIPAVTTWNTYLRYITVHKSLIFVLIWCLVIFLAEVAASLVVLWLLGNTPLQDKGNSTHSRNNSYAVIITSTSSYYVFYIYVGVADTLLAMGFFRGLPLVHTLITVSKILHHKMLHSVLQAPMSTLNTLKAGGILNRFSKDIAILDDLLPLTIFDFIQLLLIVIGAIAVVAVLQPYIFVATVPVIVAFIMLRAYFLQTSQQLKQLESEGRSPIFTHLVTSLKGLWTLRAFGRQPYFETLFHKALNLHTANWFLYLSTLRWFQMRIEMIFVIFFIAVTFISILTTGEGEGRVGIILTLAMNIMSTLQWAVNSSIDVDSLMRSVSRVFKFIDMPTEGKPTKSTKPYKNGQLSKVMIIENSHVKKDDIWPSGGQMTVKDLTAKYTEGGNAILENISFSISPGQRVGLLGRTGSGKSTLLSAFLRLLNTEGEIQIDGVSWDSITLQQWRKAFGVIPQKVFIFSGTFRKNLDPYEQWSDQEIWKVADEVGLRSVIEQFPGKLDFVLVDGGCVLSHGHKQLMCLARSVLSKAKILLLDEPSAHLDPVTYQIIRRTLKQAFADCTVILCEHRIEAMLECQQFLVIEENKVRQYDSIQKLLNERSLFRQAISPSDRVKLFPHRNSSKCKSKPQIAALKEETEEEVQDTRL

Row | Structure (SMILES) | EC50 [1] [nM] | EC50 [2] [nM] | Maximum % activity (with co-corrector) | Maximum % activity (without co-corrector)
1 | COc1nc2ccccc2cc1CO[C@H]1[C@H](C(C)(C)C)[C@@H](C(=O)O)N(C(=O)[C@@H]2CCCO2)[C@H]1c1ccccc1C(C)C [Example 116, (2S,3R,4S,5S)-3-tert-butyl-4-[(2-methoxyquinolin-3-yl)methoxy]-1-[(2S)-oxolane-2-carbonyl]-5-[2-(propan-2-yl)phenyl]pyrrolidine-2-carboxylic acid] | 1000 to 10000 | 1000 to 10000 | +++ (≥350) | ++ (≥100 and <200)
2 | COc1ncc(-c2ccccc2)cc1CO[C@H]1[C@H](C(C)(C)C)[C@@H](C(=O)O)N(C(=O)OC(C)C)[C@H]1c1ccccc1 [Example 42, (2S,3R,4S,5S)-3-tert-butyl-4-[(2-methoxy-5-phenylpyridin-3-yl)methoxy]-5-phenyl-1-{[(propan-2-yl)oxy]carbonyl}pyrrolidine-2-carboxylic acid] | 1000 to 10000 | 1000 to 10000 | +++ (≥350) | + (<100)
3 | COc1ccc(-c2ccccc2)cc1CO[C@H]1[C@H](C(C)(C)C)[C@@H](C(=O)O)N(C(=O)OC(C)C)[C@H]1c1ccccc1 [Example 38, (2S,3R,4S,5S)-3-tert-butyl-4-[(4-methoxy[1,1′-biphenyl]-3-yl)methoxy]-5-phenyl-1-{[(propan-2-yl)oxy]carbonyl}pyrrolidine-2-carboxylic acid] | 1000 to 10000 | 1000 to 10000 | +++ (≥350) | ++ (≥100 and <200)
4 | COc1ncc(C(F)(F)F)cc1CO[C@H]1[C@H](C(C)(C)C)[C@@H](C(=O)O)N(C(=O)[C@@H]2CCCCO2)[C@H]1c1cccc2ccoc12 [Example 212, (2S,3R,4S,5S)-5-(1-benzofuran-7-yl)-3-tert-butyl-4-{[2-methoxy-5-(trifluoromethyl)pyridin-3-yl]methoxy}-1-[(2S)-oxane-2-carbonyl]pyrrolidine-2-carboxylic acid] | 1000 to 10000 | 1000 to 10000 | +++ (≥350) | ++ (≥100 and <200)
5 | COc1ccc(Cl)cc1COC1[C@@H](c2ccccc2)N(C(=O)C2CCCCC2)[C@@H](C(=O)O)[C@@H]1C(C)(C)C (mixture of isomers) [Example 3, rac-(2R,3S,5R)-3-tert-butyl-4-[(5-chloro-2-methoxyphenyl)methoxy]-1-(cyclohexanecarbonyl)-5-phenylpyrrolidine-2-carboxylic acid] | 1000 to 10000 | 1000 to 10000 | +++ (≥350) | ++ (≥100 and <200)
6 | COc1ncc(C(F)(F)F)cc1CO[C@H]1[C@H](C(C)(C)C)[C@@H](C(=O)O)N(C(=O)[C@@H]2CCCCO2)[C@H]1c1ccccc1-c1ccoc1 [Example 198, (2S,3R,4S,5S)-3-tert-butyl-5-[2-(furan-3-yl)phenyl]-4-{[2-methoxy-5-(trifluoromethyl)pyridin-3-yl]methoxy}-1-[(2S)-oxane-2-carbonyl]pyrrolidine-2-carboxylic acid] | 1000 to 10000 | 1000 to 10000 | +++ (≥350) | +++ (≥200)
7 | COc1ncc(C2CCC2)cc1CO[C@H]1[C@H](C(C)(C)C)[C@@H](C(=O)O)N(C(=O)C2CCC2)[C@H]1c1cccnc1OC(C)C [Example 161, (2S,3R,4S,5S)-3-tert-butyl-1-(cyclobutanecarbonyl)-4-[(5-cyclobutyl-2-methoxypyridin-3-yl)methoxy]-5-{2-[(propan-2-yl)oxy]pyridin-3-yl}pyrrolidine-2-carboxylic acid] | 1000 to 10000 | 1000 to 10000 | +++ (≥350) | + (<100)
8 | COc1nc2ccccc2cc1CO[C@H]1[C@H](C(C)(C)C)[C@@H](C(=O)O)N(C(=O)[C@@H]2CCCO2)[C@H]1c1ccccc1Br [Example 151, (2S,3R,4S,5S)-5-(2-bromophenyl)-3-tert-butyl-4-[(2-methoxyquinolin-3-yl)methoxy]-1-[(2S)-oxolane-2-carbonyl]pyrrolidine-2-carboxylic acid] | < 1000 | < 1000 | ++ (≥150 and <350) | + (<100)
9 | COc1ncc(C2CCC2)cc1CO[C@@H]1[C@H](C(C)(C)C)[C@@H](C(=O)O)N(C(=O)OC(C)C)[C@H]1c1ccccc1Br [Example 166, (2S,3R,4R,5S)-5-(2-bromophenyl)-3-tert-butyl-4-[(5-cyclobutyl-2-methoxypyridin-3-yl)methoxy]-1-{[(propan-2-yl)oxy]carbonyl}pyrrolidine-2-carboxylic acid] | 1000 to 10000 | 1000 to 10000 | +++ (≥350) | + (<100)
10 | COc1ncc(N2CCC(F)(F)C2)cc1CO[C@H]1[C@H](C(C)(C)C)[C@@H](C(=O)O)N(C(=O)OC(C)C)[C@H]1c1ccccc1 [Example 85, (2S,3R,4S,5S)-3-tert-butyl-4-{[5-(3,3-difluoropyrrolidin-1-yl)-2-methoxypyridin-3-yl]methoxy}-5-phenyl-1-{[(propan-2-yl)oxy]carbonyl}pyrrolidine-2-carboxylic acid] | 1000 to 10000 | 1000 to 10000 | ++ (≥150 and <350) | + (<100)
11 | COc1ncc(C(F)(F)F)cc1CO[C@H]1[C@H](C(C)(C)C)[C@@H](C(=O)O)N(C(=O)[C@@H]2CCCCO2)[C@H]1c1ccccc1-c1ccccc1F [Example 204, (2S,3R,4S,5S)-3-tert-butyl-5-(2′-fluoro[1,1′-biphenyl]-2-yl)-4-{[2-methoxy-5-(trifluoromethyl)pyridin-3-yl]methoxy}-1-[(2S)-oxane-2-carbonyl]pyrrolidine-2-carboxylic acid] | 1000 to 10000 | < 1000 | +++ (≥350) | +++ (≥200)

Results, then the molecule that gave them:

Row | EC50 [1] [nM] | EC50 [2] [nM] | Maximum % activity (with co-corrector) | Maximum % activity (without co-corrector) | Structure (SMILES)
12 | 1000 to 10000 | < 1000 | +++ (≥350) | +++ (≥200) | COc1nc2c(C)ccc(C)c2cc1CO[C@H]1[C@H](C(C)(C)C)[C@@H](C(=O)O)N(C(=O)[C@@H]2CCCCO2)[C@H]1c1ccccc1C [Example 237, (2S,3R,4S,5S)-3-tert-butyl-4-[(2-methoxy-5,8-dimethylquinolin-3-yl)methoxy]-5-(2-methylphenyl)-1-[(2S)-oxane-2-carbonyl]pyrrolidine-2-carboxylic acid]
13 | 1000 to 10000 | < 1000 | +++ (≥350) | +++ (≥200) | COc1ccc(C(F)(F)F)cc1C(CO[C@H]1[C@H](C(C)(C)C)[C@@H](C(=O)O)N(C(=O)[C@@H]2CCCCO2)[C@H]1c1ccccc1C)OC (stereo partly drawn) [Example 269, (2S,3R,4S,5S)-3-tert-butyl-4-{2-methoxy-2-[2-methoxy-5-(trifluoromethyl)phenyl]ethoxy}-5-(2-methylphenyl)-1-[(2S)-oxane-2-carbonyl]pyrrolidine-2-carboxylic acid]
14 | 1000 to 10000 | < 1000 | +++ (≥350) | +++ (≥200) | COc1ncc(C(F)(F)F)cc1CO[C@H]1[C@H](C(C)(C)C)[C@@H](C(=O)O)N(C(=O)C2=CCCCO2)[C@H]1c1ccccc1C [Example 222, (2S,3R,4S,5S)-3-tert-butyl-1-(3,4-dihydro-2H-pyran-6-carbonyl)-4-{[2-methoxy-5-(trifluoromethyl)pyridin-3-yl]methoxy}-5-(2-methylphenyl)pyrrolidine-2-carboxylic acid]
15 | < 1000 | < 1000 | +++ (≥350) | ++ (≥100 and <200) | COc1nc(C(C)(C)C)ccc1CO[C@H]1[C@H](C(C)(C)C)[C@@H](C(=O)O)N(C(=O)[C@@H]2CCCCO2)[C@H]1c1cccnc1OC(C)C [Example 290, (2S,3R,4S,5S)-3-tert-butyl-4-[(6-tert-butyl-2-methoxypyridin-3-yl)methoxy]-1-[(2S)-oxane-2-carbonyl]-5-{2-[(propan-2-yl)oxy]pyridin-3-yl}pyrrolidine-2-carboxylic acid]
16 | 1000 to 10000 | 1000 to 10000 | +++ (≥350) | +++ (≥200) | COc1ccc(C(C)(C)C)cc1CO[C@H]1[C@H](C(C)(C)C)[C@@H](C(=O)O)N(C(=O)OC(C)C)[C@H]1c1cccnc1OC(C)C [Example 245, (2S,3R,4S,5S)-3-tert-butyl-4-[(5-tert-butyl-2-methoxyphenyl)methoxy]-1-{[(propan-2-yl)oxy]carbonyl}-5-{2-[(propan-2-yl)oxy]pyridin-3-yl}pyrrolidine-2-carboxylic acid]
17 | 1000 to 10000 | < 1000 | ++ (≥150 and <350) | + (<100) | COc1ncc(C(F)(F)F)cc1CO[C@H]1[C@H](C(C)(C)C)[C@@H](C(=O)O)N(C(=O)[C@@H]2CCCCO2)[C@H]1c1cc(I)ccc1C [Example 281, (2S,3R,4S,5S)-3-tert-butyl-5-(5-iodo-2-methylphenyl)-4-{[2-methoxy-5-(trifluoromethyl)pyridin-3-yl]methoxy}-1-[(2S)-oxane-2-carbonyl]pyrrolidine-2-carboxylic acid]
